{
  "source": "patent US10519504B2",
  "about": "“Methods for treatment of oncological disorders using epimetabolic shifters, multidimensional intracellular molecules, or environmental influencers” (Berg LLC, priority 2009, dated 2019)",
  "key": {"MCF-7": {"test_system": "MCF-7", "assay": "Nexin assay for apoptosis (Annexin-V-PE/7-AAD, flow cytometry)", "format": "cell-based", "settings": "50 μM and 100 μM Q10, 24 hours", "text": "(§1) The 7AAD dye will enter into cells with permeabilized cell membranes; primarily those cells that are in late apoptosis. Annexin-V-PE is a dye that binds to Phosphotidyl serine, which is exposed on the outer surface of the plasma membrane in early apoptotic cells. The Nexin reagent thus can be used to differentiate between different populations of apoptotic cells in a flow cytometer."}, "PC-3": {"test_system": "PC-3", "assay": "Nexin assay for apoptosis (Annexin-V-PE/7-AAD, flow cytometry)", "format": "cell-based", "settings": "50 μM and 100 μM Q10, 24 hours, less than in PaCa2", "text": "as §1"}, "SK-MEL28": {"test_system": "SK-MEL28", "assay": "Nexin assay for apoptosis (Annexin-V-PE/7-AAD, flow cytometry)", "format": "cell-based", "settings": "50 μM and 100 μM Q10, 24 hours", "text": "as §1"}, "SKBr3": {"test_system": "SKBr3", "assay": "Nexin assay for apoptosis (Annexin-V-PE/7-AAD, flow cytometry)", "format": "cell-based, human", "settings": "50 μM or 100 μM Q10, 24 hours", "text": "as §1"}, "SCC cells": {"test_system": "SCC cells", "assay": "Real-time PCR Heat Shock Protein Array", "format": "cell-based", "text": "The control cells were untreated cells.\nHeat Shock Arrays were run for SCC cells and the data of regulated genes is summarized below in Table 13."}, "[1]": {"test_system": "Succinate Dehydrogenase (SDH) Subunit B", "assay": "Western blot, Succinate Dehydrogenase B in mitochondrial preparations", "format": "cell-based", "settings": "mitochondrial preparations of cancer cells", "protocol": "The above blots were stripped by incubating for 30 minutes with methanol, followed by two 10 minute washes with TBS-T, then 30 minutes of incubation with Stripping buffer at 50 deg C., and followed by two washes with 100 ml or more of TBS-T for 30′ each. The blots were scanned in laser scanner to check for complete stripping. The blots were activated with methanol for 5 seconds, washed with water for 5 minutes, and TBST for 15 minutes. The blots were blocked for 1 hour with 5% blocking reagent in TBS-T at room temperature and then washed 3 times with TBS-T (1X−15′; 2X5′ each) and probed with the primary antibody for PKM2, SDHB or SDHC in 5% BSA in TBS-T by incubation overnight at 4 deg C. with gentle shaking. The primary antibody for SDHC (ABNOVA H00006391-M12; antimouse) was at 1:500 dilution. The primary antibody for SDHB was from Abcam ab4714-200; antimouse; at 1:1000 dilution. The primary antibody for Pyruvate Kinase M2 (PKM2) was from Novus Biologicals H00005315-D0IP; antirabbit; at 1:500 dilution. After incubation with primary antibodies, the membranes were washed 3 times with TBS-T (1X−15′; 2X5′ each) and probed with the secondary antibody (SDHB & C antimouse; and PKM2 antirabbit; 1:10,000 dilution) for 1 h on the orbital tilting shaker at room temperature. […]"}, "Hif1 alpha": {"test_system": "Hif1 alpha", "assay": "Western blot, Hif1 alpha levels", "format": "cell-based, human", "protocol": "The Actin blots were stripped by incubating for 30 minutes with methanol, followed by two 10 minute washes with TBS-T, then 30 minutes of incubation with Stripping buffer at 50 deg C., and followed by two washes with 100 ml or more of TBS-T for 30′ each. The blots were scanned in laser scanner to check for complete stripping. The blots were activated with methanol for 5 seconds, washed with water for 5 minutes, and TBST for 15 minutes. The blots were blocked for 1 hour with 5% blocking reagent in TBS-T at room temperature and then washed 3 times with TBS-T (1X−15′; 2X5′ each) and probed with the primary antibody for Hif 1 alpha, Caspase 3 or PDHB in 5% BSA (at 1:200 by incubation overnight at 4 deg C. with gentle shaking. The primary antibody for Hif 1 alpha (Abcam ab2185; antirabbit) was at 1:500 dilution in 5% BSA. The primary antibody for Caspase 3 (Santacruz sc7272; antirabbit) was at 1:200 dilution in 5% BSA. The primary antibody for Pyruvate Dehydrogenase beta (PDHB) (Novus Biologicals H00005162-M03; antimouse) was at 1:500 dilution in 5% BSA. After incubation with primary antibodies, the membranes were washed 3 times with TBS-T (1X−15′; 2X5′ each) and probed with the secondary antibody (PDHB antimouse; Hif 1a and Caspase 3 antirabbit; 1:10,000 dilution) for 1 h at room temperature. […]"}, "[2]": {"settings": "100 μM Q10, Down regulated at 6 hours"}},
  "data": [
    {"smiles": "COC1=C(OC)C(=O)C(C/C=C(\\C)CC/C=C(\\C)CC/C=C(\\C)CC/C=C(\\C)CC/C=C(\\C)CC/C=C(\\C)CC/C=C(\\C)CC/C=C(\\C)CC/C=C(\\C)CCC=C(C)C)=C(C)C1=O", "note": "[Q10, Coenzyme Q10]", "values": [
      {"measurement": "apoptotic population", "setting": "MCF-7", "value": "increase only in early apoptotic population"},
      {"measurement": "early and late apoptotic population", "setting": "PC-3", "value": "increase in both early and late apoptotic population"},
      {"measurement": "apoptotic population", "setting": "SK-MEL28", "value": "increase only in early apoptotic population"},
      {"measurement": "early and late apoptosis", "setting": "SKBr3", "value": "did not show any significant increases of early and late apoptosis"},
      {"measurement": "DNAJB5 Regulation", "setting": "SCC cells; [2]", "value": "Down"},
      {"measurement": "DNAJB13 Regulation", "setting": "SCC cells; [2]", "value": "Down"},
      {"measurement": "DNAJC4 Regulation", "setting": "SCC cells; [2]", "value": "Down"},
      {"measurement": "DNAJC5B Regulation", "setting": "SCC cells; [2]", "value": "Down"},
      {"measurement": "DNAJC12 Regulation", "setting": "SCC cells; [2]", "value": "Down"},
      {"measurement": "CCT6B Regulation", "setting": "SCC cells; 100 μM Q10, Down regulated at 24 hours", "value": "Down"},
      {"measurement": "DNAJA1 Regulation", "setting": "SCC cells; 100 μM Q10, at 6 hours", "value": "Up regulated"},
      {"measurement": "HSPA8 Regulation", "setting": "SCC cells; 100 μM Q10, at 6 hours", "value": "Up regulated"},
      {"measurement": "HSPH1 Regulation", "setting": "SCC cells; 100 μM Q10, at 6 hours", "value": "Up regulated"},
      {"measurement": "SDH protein levels", "setting": "[1]", "value": "increase SDH protein levels"},
      {"measurement": "Hif1 alpha protein levels", "setting": "Hif1 alpha; mitochondrial preparations of cancer cells", "value": "decreased Hif1 alpha protein levels"},
      {"measurement": "Hif1a lower band", "setting": "Hif1 alpha; whole cell lysates of normal cells", "value": "showed a decrease as well"}
    ]}
  ]
}
